Results: patent US20070049593A1 (priority 2004, published 2007)
Counter-ions that a name gives are not always drawn.

Target: T1, HCV polymerase (Hepatitis C virus genotype 1b, UniProt P26663)
T1 construct: a region encoding NS5B (J Virol 1991 March, 65(3), 1105-13, 544 amino acids after deletion of 47 amino acids on the C-terminal); 6xHis (C); made in house; host or cells: Escherichia coli
Test: biochemical
Set-up: species or system HCV BK strain
Method in brief: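 Recombinant HCV BK-strain NS5B (C-terminal 47 aa deleted, His6-tagged, E. coli), 0.5 μg/ml, run with 5 μg/ml in vitro-transcribed RNA template (polyU/3′X), ATP/GTP/CTP 50 μM, UTP 2 μM plus [3H]UTP, pH 7.5, 25° C, 90 min. TCA-precipitated RNA counted by scintillation; IC50 from activity with vs without compound.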

T1 sequence (P26663 2420-2963): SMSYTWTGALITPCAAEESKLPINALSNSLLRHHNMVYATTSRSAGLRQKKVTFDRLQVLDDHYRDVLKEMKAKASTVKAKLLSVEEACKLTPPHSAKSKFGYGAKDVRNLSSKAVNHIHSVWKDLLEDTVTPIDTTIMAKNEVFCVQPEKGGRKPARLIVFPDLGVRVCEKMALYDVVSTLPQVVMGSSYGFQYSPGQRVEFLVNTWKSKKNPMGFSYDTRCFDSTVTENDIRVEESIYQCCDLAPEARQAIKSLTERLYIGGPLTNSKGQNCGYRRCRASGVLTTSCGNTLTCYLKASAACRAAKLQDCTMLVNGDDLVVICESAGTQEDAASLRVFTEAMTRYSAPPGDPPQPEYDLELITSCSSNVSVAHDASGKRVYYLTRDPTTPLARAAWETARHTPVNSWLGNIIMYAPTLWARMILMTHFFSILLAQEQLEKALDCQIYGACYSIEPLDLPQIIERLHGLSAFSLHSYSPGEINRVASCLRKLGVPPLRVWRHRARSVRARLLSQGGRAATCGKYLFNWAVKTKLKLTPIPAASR

Question: For `CN1CCn2c(c(C3CCCCC3)c3ccc(C(=O)O)cc32)-c2ccc(OCc3cc(S(C)(=O)=O)ccc3N3CCOCC3)cc21` [Example 1-103, 13-cyclohexyl-3-[5-methanesulfonyl-2-(morpholin-4-yl)benzyloxy]-5-methyl-6,7-dihydro-5H-benzo[5,6][1,4]diazepino[7,1-a]indole-10-carboxylic acid dihydrochloride], which IC50 is on record?
Answer: < 100 nM

Question: `COC(=O)N1CCN(CCN2CCn3c(c(C4CCCCC4)c4ccc(C(=O)O)cc43)-c3ccccc32)CC1` [Example 1-104, 13-cyclohexyl-5-[2-(4-methoxycarbonylpiperazin-1-yl)ethyl]-6,7-dihydro-5H-benzo[5,6][1,4]diazepino[7,1-a]indole-10-carboxylic acid dihydrochloride] was tested. Which IC50 did it give?
Answer: < 100 nM

Question: How did the IC50 turn out when `O=C(O)c1ccc2c(C3CCCCC3)c3n(c2c1)CCN(CCCOC1CCCCO1)c1ccccc1-3` (stereo not drawn) [Example 1-105, 13-cyclohexyl-5-[3-(tetrahydropyran-2-yloxy)propyl]-6,7-dihydro-5H-benzo[5,6][1,4]diazepino[7,1-a]indole-10-carboxylic acid] was run?
Answer: < 100 nM

Question: `O=C(O)c1ccc2c(C3CCCCC3)c3n(c2c1)CCN(CC(=O)N1CCCC(O)C1)c1ccccc1-3` (stereo not drawn) [Example 1-106, 13-cyclohexyl-5-[2-(3-hydroxypiperidin-1-yl)-2-oxoethyl]-6,7-dihydro-5H-benzo[5,6][1,4]diazepino[7,1-a]indole-10-carboxylic acid monohydrochloride] was tested. Which IC50 did it give?
Answer: < 100 nM

Question: `O=C(O)c1ccc2c(C3CCCCC3)c3n(c2c1)CCN(CCN1CCOCC1)c1cc(F)ccc1-3` [Example 1-107, 13-cyclohexyl-3-fluoro-5-[2-(morpholin-4-yl)ethyl]-6,7-dihydro-5H-benzo[5,6][1,4]diazepino[7,1-a]indole-10-carboxylic acid dihydrochloride] was tested. Which IC50 did it give?
Answer: < 100 nM

Question: Which IC50 does the source give for `Cc1ccc2c(c1)N(CCN1CCCCC1)CCn1c-2c(C2CCCCC2)c2ccc(C(=O)O)cc21` [Example 1-108, 13-cyclohexyl-3-methyl-5-[2-(piperidin-1-yl)ethyl]-6,7-dihydro-5H-benzo[5,6][1,4]diazepino[7,1-a]indole-10-carboxylic acid dihydrochloride] here?
Answer: < 100 nM

Question: `O=C(O)c1ccc2c(C3CCCCC3)c3n(c2c1)CCN(CC(=O)N1CCOCC1)c1cc(F)ccc1-3` [Example 1-109, 13-cyclohexyl-3-fluoro-5-[2-(morpholin-4-yl)-2-oxoethyl]-6,7-dihydro-5H-benzo[5,6][1,4]diazepino[7,1-a]indole-10-carboxylic acid monohydrochloride] was tested. Which IC50 did it give?
Answer: < 100 nM

Question: `CCN1CCN(CCN2CCn3c(c(C4CCCCC4)c4ccc(C(=O)O)cc43)-c3ccc(C)cc32)CC1` [Example 1-110, 13-cyclohexyl-5-[2-(4-ethylpiperazin-1-yl)ethyl]-3-methyl-6,7-dihydro-5H-benzo[5,6][1,4]diazepino[7,1-a]indole-10-carboxylic acid trihydrochloride] was tested. Which IC50 did it give?
Answer: < 100 nM

Question: How did the IC50 turn out when `O=C(O)c1ccc2c(C3CCCCC3)c3n(c2c1)CCN(CCCN1CCCCC1)c1ccccc1-3` [Example 1-111, 13-cyclohexyl-5-[3-(piperidin-1-yl)propyl]-6,7-dihydro-5H-benzo[5,6][1,4]diazepino[7,1-a]indole-10-carboxylic acid dihydrochloride] was run?
Answer: < 100 nM

Question: How did the IC50 turn out when `O=C(O)c1ccc2c(C3CCCCC3)c3n(c2c1)CCN(CCCO)c1ccccc1-3` [Example 1-112, 13-cyclohexyl-5-(3-hydroxypropyl)-6,7-dihydro-5H-benzo[5,6][1,4]diazepino[7,1-a]indole-10-carboxylic acid monohydrochloride] was run?
Answer: < 100 nM

Question: How did the IC50 turn out when `O=C(O)c1ccc2c(C3CCCCC3)c3n(c2c1)CCN(CCN1CCCC(O)C1)c1ccccc1-3` (stereo not drawn) [Example 1-113, 13-cyclohexyl-5-[2-(3-hydroxypiperidin-1-yl)ethyl]-6,7-dihydro-5H-benzo[5,6][1,4]diazepino[7,1-a]indole-10-carboxylic acid dihydrochloride] was run?
Answer: < 100 nM

Question: With `O=C(O)c1ccc2c(C3CCCCC3)c3n(c2c1)CCN(CC(=O)N1CCCCC1)c1cc(F)ccc1-3` [Example 1-114, 13-cyclohexyl-3-fluoro-5-[2-oxo-2-(piperidin-1-yl)ethyl]-6,7-dihydro-5H-benzo[5,6][1,4]diazepino[7,1-a]indole-10-carboxylic acid monohydrochloride] as the compound, how does the IC50 read?
Answer: < 100 nM

Question: Which IC50 does the source give for `Cc1ccc2c(c1)N(CC(=O)N1CCCCC1)CCn1c-2c(C2CCCCC2)c2ccc(C(=O)O)cc21` [Example 1-115, 13-cyclohexyl-3-methyl-5-[2-oxo-2-(piperidin-1-yl)ethyl]-6,7-dihydro-5H-benzo[5,6][1,4]diazepino[7,1-a]indole-10-carboxylic acid monohydrochloride] here?
Answer: < 100 nM

Question: How did the IC50 turn out when `O=C(O)c1ccc2c(C3CCCCC3)c3n(c2c1)CCN(CCN1CCCCC1)c1cc(F)ccc1-3` [Example 1-116, 13-cyclohexyl-3-fluoro-5-[2-(piperidin-1-yl)ethyl]-6,7-dihydro-5H-benzo[5,6][1,4]diazepino[7,1-a]indole-10-carboxylic acid dihydrochloride] was run?
Answer: < 100 nM

Question: How did the IC50 turn out when `CCN1CCN(C(=O)CN2CCn3c(c(C4CCCCC4)c4ccc(C(=O)O)cc43)-c3ccc(C)cc32)CC1` [Example 1-117, 13-cyclohexyl-5-[2-(4-ethylpiperazin-1-yl)-2-oxoethyl]-3-methyl-6,7-dihydro-5H-benzo[5,6][1,4]diazepino[7,1-a]indole-10-carboxylic acid dihydrochloride] was run?
Answer: < 100 nM

Question: `CC(=O)N1CCC(CN2CCn3c(c(C4CCCCC4)c4ccc(C(=O)O)cc43)-c3ccccc32)CC1` [Example 1-118, 5-(1-acetylpiperidin-4-ylmethyl)-13-cyclohexyl-6,7-dihydro-5H-benzo[5,6][1,4]diazepino[7,1-a]indole-10-carboxylic acid monohydrochloride] was tested. Which IC50 did it give?
Answer: < 100 nM

Question: How did the IC50 turn out when `CC(C)N1CCC(CCN2CCn3c(c(C4CCCCC4)c4ccc(C(=O)O)cc43)-c3ccccc32)CC1` [Example 1-119, 13-cyclohexyl-5-[2-(1-isopropylpiperidin-4-yl)ethyl]-6,7-dihydro-5H-benzo[5,6][1,4]diazepino[7,1-a]indole-10-carboxylic acid dihydrochloride] was run?
Answer: < 100 nM

Question: With `O=C(O)c1ccc2c(C3CCCCC3)c3n(c2c1)CCN(CC1CCOCC1)c1ccccc1-3` [Example 1-120, 13-cyclohexyl-5-(tetrahydropyran-4-ylmethyl)-6,7-dihydro-5H-benzo[5,6][1,4]diazepino[7,1-a]indole-10-carboxylic acid monohydrochloride] as the compound, how does the IC50 read?
Answer: < 100 nM

Question: `CC1CCCN(C(=O)CN2CCn3c(c(C4CCCCC4)c4ccc(C(=O)O)cc43)-c3ccccc32)C1` (stereo not drawn) [Example 1-122, 13-cyclohexyl-5-[2-(3-methylpiperidin-1-yl)-2-oxoethyl]-6,7-dihydro-5H-benzo[5,6][1,4]diazepino[7,1-a]indole-10-carboxylic acid monohydrochloride] was tested. Which IC50 did it give?
Answer: < 100 nM

Question: For `CCN1CCC(=CCN2CCn3c(c(C4CCCCC4)c4ccc(C(=O)O)cc43)-c3ccccc32)CC1` [Example 1-123, 13-cyclohexyl-5-[2-(1-ethylpiperidin-4-ylidene)ethyl]-6,7-dihydro-5H-benzo[5,6][1,4]diazepino[7,1-a]indole-10-carboxylic acid dihydrochloride], which IC50 is on record?
Answer: < 100 nM

Question: `CC(C)C1CCN(C(=O)CN2CCn3c(c(C4CCCCC4)c4ccc(C(=O)O)cc43)-c3ccccc32)CC1` [Example 1-124, 13-cyclohexyl-5-[2-(4-isopropylpiperidin-1-yl)-2-oxoethyl]-6,7-dihydro-5H-benzo[5,6][1,4]diazepino[7,1-a]indole-10-carboxylic acid monohydrochloride] was tested. Which IC50 did it give?
Answer: < 100 nM

Question: For `COC1CCCN(C(=O)CN2CCn3c(c(C4CCCCC4)c4ccc(C(=O)O)cc43)-c3ccccc32)C1` (stereo not drawn) [Example 1-125, 13-cyclohexyl-5-[2-(3-methoxypiperidin-1-yl)-2-oxoethyl]-6,7-dihydro-5H-benzo[5,6][1,4]diazepino[7,1-a]indole-10-carboxylic acid monohydrochloride], which IC50 is on record?
Answer: < 100 nM

Question: For `O=C(O)c1ccc2c(C3CCCCC3)c3n(c2c1)CCN(Cc1ccccn1)c1ccccc1-3` [Example 1-126, 13-cyclohexyl-5-(pyridin-2-ylmethyl)-6,7-dihydro-5H-benzo[5,6][1,4]diazepino[7,1-a]indole-10-carboxylic acid dihydrochloride], which IC50 is on record?
Answer: < 100 nM

Question: How did the IC50 turn out when `CCCS(=O)(=O)NC(=O)c1ccc2c(C3CCCCC3)c3n(c2c1)CCN(CC(=O)N1CCN(CC)CC1)c1ccccc1-3` [Example 1-129, N-{13-cyclohexyl-5-[2-(4-ethylpiperazin-1-yl)-2-oxoethyl]-6,7-dihydro-5H-benzo[5,6][1,4]diazepino[7,1-a]indole-10-carbonyl}propane-1-sulfonamide dihydrochloride] was run?
Answer: < 100 nM

Question: Which IC50 does the source give for `CCN1CCC(CN2CCn3c(c(C4CCCCC4)c4ccc(C(=O)O)cc43)-c3ccccc32)CC1` [Example 1-130, 13-cyclohexyl-5-(1-ethylpiperidin-4-ylmethyl)-6,7-dihydro-5H-benzo[5,6][1,4]diazepino[7,1-a]indole-10-carboxylic acid] here?
Answer: < 100 nM

Question: With `O=C(O)c1ccc2c(C3CCCCC3)c3n(c2c1)CCN(CC(=O)N1CCCCCCC1)c1ccccc1-3` [Example 1-131, 5-[2-(azocan-1-yl)-2-oxoethyl]-13-cyclohexyl-6,7-dihydro-5H-benzo[5,6][1,4]diazepino[7,1-a]indole-10-carboxylic acid] as the compound, how does the IC50 read?
Answer: < 100 nM

Question: `O=C(O)c1ccc2c(C3CCCCC3)c3n(c2c1)CCN(CC(=O)N1CCCCCCCC1)c1ccccc1-3` [Example 1-132, 5-[2-(azonan-1-yl)-2-oxoethyl]-13-cyclohexyl-6,7-dihydro-5H-benzo[5,6][1,4]diazepino[7,1-a]indole-10-carboxylic acid] was tested. Which IC50 did it give?
Answer: < 100 nM
